Test system: SYO-1 tumor spheroids, viability % test/control
Experiment: Anticancer human tumor SYO-1 cell line growth inhibition;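 also: spheroids exposed to agents for 7 days before viability read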;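 as to viability, T/C: 100% = DMSO vehicle control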
Details: spheroids with HUVEC and MSC; for IC50: curve of first compound; for viability, T/C: stronger effect = lower value
Summary of the method: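 Complex spheroids of malignant cells with endothelial cells and mesenchymal stem cells; agents alone or combined, from near clinical Cmax (or 10 microM if unknown) down in half-log steps, 0.25% DMSO final.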

[1] = second compound 0.003 µM, first compound 0.0316 µM
[2] = second compound 0.003 µM, first compound 0.1 µM
[3] = second compound 0.003 µM, first compound 0.316 µM
[4] = second compound 0.003 µM, first compound 1 µM
[5] = second compound 0.003 µM, first compound 3.16 µM
[6] = second compound 0.003 µM, first compound 10 µM
[7] = second compound 0.00949 µM, first compound 0.0316 µM
[8] = second compound 0.00949 µM, first compound 0.1 µM
[9] = second compound 0.00949 µM, first compound 0.316 µM
[10] = second compound 0.00949 µM, first compound 1 µM
[11] = second compound 0.00949 µM, first compound 3.16 µM
[12] = second compound 0.00949 µM, first compound 10 µM
[13] = second compound 0.03 µM, first compound 0.0316 µM
[14] = second compound 0.03 µM, first compound 0.1 µM
[15] = second compound 0.03 µM, first compound 0.316 µM
[16] = second compound 0.03 µM, first compound 1 µM
[17] = second compound 0.03 µM, first compound 3.16 µM
[18] = second compound 0.03 µM, first compound 10 µM
[19] = second compound 0.0949 µM, first compound 0.0316 µM
[20] = second compound 0.0949 µM, first compound 0.1 µM
[21] = second compound 0.0949 µM, first compound 0.316 µM
[22] = second compound 0.0949 µM, first compound 1 µM
[23] = second compound 0.0949 µM, first compound 3.16 µM
[24] = second compound 0.0949 µM, first compound 10 µM
[25] = second compound 0.3 µM, first compound 0.0316 µM
[26] = second compound 0.3 µM, first compound 0.1 µM
[27] = second compound 0.3 µM, first compound 0.316 µM
[28] = second compound 0.3 µM, first compound 1 µM
[29] = second compound 0.3 µM, first compound 3.16 µM
[30] = second compound 0.3 µM, first compound 10 µM

SMILES: CC(C)n1c(=O)n(C)c2cnc3cc(F)c(-c4ccc(OCCCN5CCCCC5)nc4)cc3c21 + CC[C@@]1(O)C(=O)OCc2c1cc1n(c2=O)Cc2cc3c(CN(C)C)c(O)ccc3nc2-1
- IC50 (second compound 0.003 µM): < 31.6 nM
- IC50 (second compound 0.00949 µM): < 31.6 nM
- IC50 (second compound 0.03 µM): < 31.6 nM
- IC50 (second compound 0.0949 µM): < 31.6 nM
- IC50 (second compound 0.3 µM): < 31.6 nM
- viability, T/C [1]: 7.3%
- viability, T/C [2]: 7.98%
- viability, T/C [3]: 8.08%
- viability, T/C [4]: 5.73%
- viability, T/C [5]: 1.45%
- viability, T/C [6]: 0.47%
- viability, T/C [7]: 2.88%
- viability, T/C [8]: 3.1%
- viability, T/C [9]: 2.8%
- viability, T/C [10]: 2.56%
- viability, T/C [11]: 1.27%
- viability, T/C [12]: 0.3%
- viability, T/C [13]: 2.53%
- viability, T/C [14]: 2.44%
- viability, T/C [15]: 2.23%
- viability, T/C [16]: 2.14%
- viability, T/C [17]: 1.02%
- viability, T/C [18]: 0.26%
- viability, T/C [19]: 1.61%
- viability, T/C [20]: 1.69%
- viability, T/C [21]: 1.67%
- viability, T/C [22]: 1.34%
- viability, T/C [23]: 1.18%
- viability, T/C [24]: 0.25%
- viability, T/C [25]: 1.48%
- viability, T/C [26]: 1.31%
- viability, T/C [27]: 1.3%
- viability, T/C [28]: 1.31%
- viability, T/C [29]: 0.93%
- viability, T/C [30]: 0.28%

SMILES: CC1COCCN1c1cc(-c2ccnn2C)c2ccnc(-c3ccn[nH]3)c2n1 (stereo not given) + CC[C@@]1(O)C(=O)OCc2c1cc1n(c2=O)Cc2cc3c(CN(C)C)c(O)ccc3nc2-1
- IC50 (second compound 0.003 µM): < 31.6 nM
- IC50 (second compound 0.00949 µM): < 31.6 nM
- IC50 (second compound 0.03 µM): < 31.6 nM
- IC50 (second compound 0.0949 µM): < 31.6 nM
- IC50 (second compound 0.3 µM): < 31.6 nM
- viability, T/C [1]: 2.41%
- viability, T/C [2]: 1.6%
- viability, T/C [3]: 1.52%
- viability, T/C [4]: 1.01%
- viability, T/C [5]: 0.46%
- viability, T/C [6]: 0.49%
- viability, T/C [7]: 1.89%
- viability, T/C [8]: 1.76%
- viability, T/C [9]: 1.42%
- viability, T/C [10]: 0.94%
- viability, T/C [11]: 0.47%
- viability, T/C [12]: 0.42%
- viability, T/C [13]: 1.75%
- viability, T/C [14]: 1.64%
- viability, T/C [15]: 1.18%
- viability, T/C [16]: 0.74%
- viability, T/C [17]: 0.43%
- viability, T/C [18]: 0.42%
- viability, T/C [19]: 1.31%
- viability, T/C [20]: 1.48%
- viability, T/C [21]: 0.96%
- viability, T/C [22]: 0.68%
- viability, T/C [23]: 0.44%
- viability, T/C [24]: 0.41%
- viability, T/C [25]: 1.79%
- viability, T/C [26]: 1.55%
- viability, T/C [27]: 1.05%
- viability, T/C [28]: 0.66%
- viability, T/C [29]: 0.47%
- viability, T/C [30]: 0.49%

SMILES: COc1cc(C)[nH]c(=O)c1CN1CCc2c(Cl)cc(C(OC)C3COC3)c(Cl)c2C1=O (stereo not given) + CC[C@@]1(O)C(=O)OCc2c1cc1n(c2=O)Cc2cc3c(CN(C)C)c(O)ccc3nc2-1
- IC50 (second compound 0.003 µM): 777 nM
- IC50 (second compound 0.00949 µM): < 31.6 nM
- IC50 (second compound 0.03 µM): < 31.6 nM
- IC50 (second compound 0.0949 µM): < 31.6 nM
- IC50 (second compound 0.3 µM): < 31.6 nM
- viability, T/C [1]: 99.8%
- viability, T/C [2]: 96.1%
- viability, T/C [3]: 71.5%
- viability, T/C [4]: 44.5%
- viability, T/C [5]: 33.9%
- viability, T/C [6]: 32.8%
- viability, T/C [7]: 22.7%
- viability, T/C [8]: 18.1%
- viability, T/C [9]: 8.42%
- viability, T/C [10]: 5.82%
- viability, T/C [11]: 5.77%
- viability, T/C [12]: 4.94%
- viability, T/C [13]: 1.81%
- viability, T/C [14]: 2.29%
- viability, T/C [15]: 2.26%
- viability, T/C [16]: 2.14%
- viability, T/C [17]: 2.28%
- viability, T/C [18]: 2.42%
- viability, T/C [19]: 1.63%
- viability, T/C [20]: 1.59%
- viability, T/C [21]: 1.59%
- viability, T/C [22]: 1.68%
- viability, T/C [23]: 1.72%
- viability, T/C [24]: 1.9%
- viability, T/C [25]: 2%
- viability, T/C [26]: 2.17%
- viability, T/C [27]: 2.06%
- viability, T/C [28]: 1.88%
- viability, T/C [29]: 1.89%
- viability, T/C [30]: 2.12%

SMILES: COc1ccc([C@@H](O)c2cc(-c3ncnc4cc(N5CCOCC5)ccc34)c(F)cc2Cl)nn1 + CC[C@@]1(O)C(=O)OCc2c1cc1n(c2=O)Cc2cc3c(CN(C)C)c(O)ccc3nc2-1
- IC50 (second compound 0.003 µM): 1770 nM
- IC50 (second compound 0.00949 µM): < 31.6 nM
- IC50 (second compound 0.03 µM): < 31.6 nM
- IC50 (second compound 0.0949 µM): < 31.6 nM
- IC50 (second compound 0.3 µM): < 31.6 nM
- viability, T/C [1]: 94.3%
- viability, T/C [2]: 99.1%
- viability, T/C [3]: 94.7%
- viability, T/C [4]: 87.6%
- viability, T/C [5]: 11.8%
- viability, T/C [6]: 2.63%
- viability, T/C [7]: 41.7%
- viability, T/C [8]: 33.1%
- viability, T/C [9]: 44.8%
- viability, T/C [10]: 17.1%
- viability, T/C [11]: 1.57%
- viability, T/C [12]: 0.79%
- viability, T/C [13]: 1.67%
- viability, T/C [14]: 1.43%
- viability, T/C [15]: 1.42%
- viability, T/C [16]: 0.87%
- viability, T/C [17]: 0.63%
- viability, T/C [18]: 0.71%
- viability, T/C [19]: 1.2%
- viability, T/C [20]: 1.26%
- viability, T/C [21]: 1.18%
- viability, T/C [22]: 1.01%
- viability, T/C [23]: 0.75%
- viability, T/C [24]: 0.54%
- viability, T/C [25]: 1.43%
- viability, T/C [26]: 1.86%
- viability, T/C [27]: 1.46%
- viability, T/C [28]: 0.88%
- viability, T/C [29]: 0.2%
- viability, T/C [30]: 0.21%

SMILES: Cc1cc(C)c(CNC(=O)c2cc(-c3ccc(CN4CCOCC4)cc3)cc3c2cnn3C2CCCC2)c(=O)[nH]1 + CC[C@@]1(O)C(=O)OCc2c1cc1n(c2=O)Cc2cc3c(CN(C)C)c(O)ccc3nc2-1
- IC50 (second compound 0.003 µM): 8350 nM
- IC50 (second compound 0.00949 µM): < 31.6 nM
- IC50 (second compound 0.03 µM): < 31.6 nM
- IC50 (second compound 0.0949 µM): < 31.6 nM
- IC50 (second compound 0.3 µM): < 31.6 nM
- viability, T/C [1]: 89.3%
- viability, T/C [2]: 90.5%
- viability, T/C [3]: 91.4%
- viability, T/C [4]: 91.9%
- viability, T/C [5]: 80.6%
- viability, T/C [6]: 43.9%
- viability, T/C [7]: 10.4%
- viability, T/C [8]: 9.41%
- viability, T/C [9]: 15.2%
- viability, T/C [10]: 12.5%
- viability, T/C [11]: 8.6%
- viability, T/C [12]: 3.78%
- viability, T/C [13]: 1.69%
- viability, T/C [14]: 1.58%
- viability, T/C [15]: 1.52%
- viability, T/C [16]: 1.59%
- viability, T/C [17]: 1.68%
- viability, T/C [18]: 2.01%
- viability, T/C [19]: 1.54%
- viability, T/C [20]: 1.74%
- viability, T/C [21]: 1.49%
- viability, T/C [22]: 1.89%
- viability, T/C [23]: 2.19%
- viability, T/C [24]: 1.93%
- viability, T/C [25]: 1.86%
- viability, T/C [26]: 1.8%
- viability, T/C [27]: 2.05%
- viability, T/C [28]: 2.19%
- viability, T/C [29]: 2.23%
- viability, T/C [30]: 1.83%

SMILES: [2H]c1nc(C)nc([2H])c1-c1cc(NC[C@@H](C)c2cccc3c(C(=O)NC)ccnc23)ncn1 + CC[C@@]1(O)C(=O)OCc2c1cc1n(c2=O)Cc2cc3c(CN(C)C)c(O)ccc3nc2-1
- IC50 (second compound 0.003 µM): > 10000 nM
- IC50 (second compound 0.00949 µM): < 31.6 nM
- IC50 (second compound 0.03 µM): < 31.6 nM
- IC50 (second compound 0.0949 µM): < 31.6 nM
- IC50 (second compound 0.3 µM): < 31.6 nM
- viability, T/C [1]: 92.5%
- viability, T/C [2]: 99.4%
- viability, T/C [3]: 94.6%
- viability, T/C [4]: 93%
- viability, T/C [5]: 92.3%
- viability, T/C [6]: 93.7%
- viability, T/C [7]: 25.9%
- viability, T/C [8]: 31.1%
- viability, T/C [9]: 28.9%
- viability, T/C [10]: 20%
- viability, T/C [11]: 19.2%
- viability, T/C [12]: 17.2%
- viability, T/C [13]: 1.86%
- viability, T/C [14]: 2.19%
- viability, T/C [15]: 1.77%
- viability, T/C [16]: 2.01%
- viability, T/C [17]: 1.73%
- viability, T/C [18]: 1.75%
- viability, T/C [19]: 1.57%
- viability, T/C [20]: 1.61%
- viability, T/C [21]: 1.6%
- viability, T/C [22]: 1.39%
- viability, T/C [23]: 1.9%
- viability, T/C [24]: 1.55%
- viability, T/C [25]: 1.71%
- viability, T/C [26]: 1.76%
- viability, T/C [27]: 2.05%
- viability, T/C [28]: 1.52%
- viability, T/C [29]: 1.73%
- viability, T/C [30]: 2.12%
